Data as given in patent US11053213B2, “Pharmaceutical compounds” (ALMAC DISCOVERY LIMITED, priority 2016, dated 2021).
pIC50: −log10 of the molar value.

biological target: USP19 (Homo sapiens (Human), UniProt O94966); experiment: USP19 activity assay (fluorescence polarisation, Ubiquitin-Lys-TAMRA substrate); format: biochemical; details: full-length USP19 2.5 nM, 30 min pre-incubation, Ub substrate 500 nM; average of at least two duplicate experiments
Sequence (O94966 whole entry): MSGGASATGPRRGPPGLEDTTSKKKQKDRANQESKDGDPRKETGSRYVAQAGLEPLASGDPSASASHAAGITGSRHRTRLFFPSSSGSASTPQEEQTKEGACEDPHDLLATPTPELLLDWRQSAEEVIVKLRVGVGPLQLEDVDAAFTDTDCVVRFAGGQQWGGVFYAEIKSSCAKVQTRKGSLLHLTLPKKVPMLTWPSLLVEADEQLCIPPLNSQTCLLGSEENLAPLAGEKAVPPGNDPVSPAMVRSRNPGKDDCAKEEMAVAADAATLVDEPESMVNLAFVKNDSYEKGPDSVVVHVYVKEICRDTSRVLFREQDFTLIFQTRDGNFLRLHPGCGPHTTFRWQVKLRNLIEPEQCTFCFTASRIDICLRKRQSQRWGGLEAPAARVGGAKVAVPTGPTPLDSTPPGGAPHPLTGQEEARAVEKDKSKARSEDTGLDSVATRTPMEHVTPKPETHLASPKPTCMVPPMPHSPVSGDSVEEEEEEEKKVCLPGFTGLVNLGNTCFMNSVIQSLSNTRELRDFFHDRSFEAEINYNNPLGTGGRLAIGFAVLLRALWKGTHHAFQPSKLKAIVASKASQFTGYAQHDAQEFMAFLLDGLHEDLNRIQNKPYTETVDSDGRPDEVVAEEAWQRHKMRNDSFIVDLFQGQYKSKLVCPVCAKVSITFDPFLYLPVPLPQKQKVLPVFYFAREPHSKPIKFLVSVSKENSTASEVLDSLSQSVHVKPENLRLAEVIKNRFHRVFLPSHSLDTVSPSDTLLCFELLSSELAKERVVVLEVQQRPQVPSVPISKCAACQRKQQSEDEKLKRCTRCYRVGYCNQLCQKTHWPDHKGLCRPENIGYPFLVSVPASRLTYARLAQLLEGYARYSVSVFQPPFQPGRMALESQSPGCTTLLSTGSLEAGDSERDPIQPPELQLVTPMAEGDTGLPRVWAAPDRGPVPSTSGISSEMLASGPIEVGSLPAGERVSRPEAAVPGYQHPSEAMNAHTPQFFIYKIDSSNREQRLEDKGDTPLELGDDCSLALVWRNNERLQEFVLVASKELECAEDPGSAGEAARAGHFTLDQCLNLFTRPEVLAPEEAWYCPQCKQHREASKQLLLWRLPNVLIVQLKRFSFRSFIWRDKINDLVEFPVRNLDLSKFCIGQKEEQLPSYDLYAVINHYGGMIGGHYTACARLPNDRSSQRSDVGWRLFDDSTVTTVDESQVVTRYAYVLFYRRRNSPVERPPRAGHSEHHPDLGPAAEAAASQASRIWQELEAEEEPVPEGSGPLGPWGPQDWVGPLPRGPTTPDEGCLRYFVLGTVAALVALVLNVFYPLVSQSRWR

First: CN(C)C(=O)c1cn(CC2(O)CCN(C(=O)CCC3CCOC3)CC23CCCC3)c(=O)cc1-c1ccccc1 (stereo not shown) [Example 173, 1-((10-Hydroxy-7-(3-(tetrahydrofuran-3-yl)propanoyl)-7-azaspiro[4.5]decan-10-yl)methyl)-N,N-dimethyl-6-oxo-4-phenyl-1,6-dihydropyridine-3-carboxamide]
Second: CCOCCC(=O)N1CCC(O)(Cn2cc(C(=O)N(C)C)c(-c3ccccc3)cc2=O)C2(CCCC2)C1 (stereo not shown) [Example 182, 1-((7-(3-Ethoxypropanoyl)-10-hydroxy-7-azaspiro[4.5]decan-10-yl)methyl)-N,N-dimethyl-6-oxo-4-phenyl-1,6-dihydropyridine-3-carboxamide]
The pIC50 of the first is lower: 3.60 to 4.30 for the first, 4.30 to 5.30 for the second. The second is the more potent here.

First: CN(C)C(=O)c1cn(CC2(O)CCN(C(=O)[C@H](COCc3ccccc3)CC3CCCCC3)CC2(C)C)c(=O)cc1-c1ccccc1 (stereo partly drawn) [Example 146, 1-((1-((S)-3-(Benzyloxy)-2-(cyclohexylmethyl)propanoyl)-4-hydroxy-3,3-dimethylpiperidin-4-yl)methyl)-N,N-dimethyl-6-oxo-4-phenyl-1,6-dihydropyridine-3-carboxamide]
Second: COC[C@H](CC1CCCCC1)C(=O)N1CC[C@@](O)(Cn2cc(C(=O)N(C)C)c(-c3ccccc3)cc2=O)C(C)(C)C1 [Example 160, 1-(((S)-1-((S)-3-Cyclohexyl-2-(methoxymethyl)propanoyl)-4-hydroxy-3,3-dimethylpiperidin-4-yl)methyl)-N,N-dimethyl-6-oxo-4-phenyl-1,6-dihydropyridine-3-carboxamide]
The pIC50 of the first is lower: 5.30 to 6.30 for the first, over 6.30 for the second. The second is the more potent here.

First: C[C@H](CC(=O)N1CCC(O)(Cn2cc(C(=O)NCC3CC3)c(-c3ccccc3)cc2=O)CC1)c1ccccc1 [Example 104, (R)—N-(Cyclopropylmethyl)-1-((4-hydroxy-1-(3-phenylbutanoyl)piperidin-4-yl)methyl)-6-oxo-4-phenyl-1,6-dihydropyridine-3-carboxamide]
Second: C[C@H](CC(=O)N1CCC(O)(Cn2cc(-c3ccccc3)c(N(C)C)cc2=O)CC1)c1ccccc1 [Example 11, (R)-4-(Dimethylamino)-1-((4-hydroxy-1-(3-phenylbutanoyl)piperidin-4-yl)methyl)-5-phenylpyridin-2(1H)-one]
The pIC50 of the first is higher: 4.30 to 5.30 for the first, 3.60 to 4.30 for the second.

Compared with `C[C@H](CC(=O)N1CCC(O)(Cn2cnc(-c3cccc(C4OCCO4)c3)cc2=O)CC1)c1ccccc1` [Example 21, (R)-6-(3-(1,3-Dioxolan-2-yl)phenyl)-3-((4-hydroxy-1-(3-phenylbutanoyl)piperidin-4-yl)methyl)pyrimidin-4(3H)-one], `C[C@H](CC(=O)N1CCC(O)(Cn2cnc(-c3ccccc3CO)cc2=O)CC1)c1ccccc1` [Example 74, (R)-3-((4-Hydroxy-1-(3-phenylbutanoyl)piperidin-4-yl)methyl)-6-(2-(hydroxymethyl)phenyl)pyrimidin-4(3H)-one] is lower in pIC50: 4.30 to 5.30 for the first, 3.60 to 4.30 for the second. The first is the more potent here.

First: CN(C)C(=O)c1cn(CC2(O)CCN(C(=O)c3ncoc3C3CC3)CC23CCCC3)c(=O)cc1-c1ccccc1 (stereo not shown) [Example 193, 1-((7-(5-Cyclopropyloxazole-4-carbonyl)-10-hydroxy-7-azaspiro[4.5]decan-10-yl)methyl)-N,N-dimethyl-6-oxo-4-phenyl-1,6-dihydropyridine-3-carboxamide]
Second: C[C@H](CC1CC1)C(=O)N1CCC(O)(Cn2cc(C(=O)N(C)C)c(-c3ccccc3)cc2=O)C2(CCCC2)C1 (stereo partly drawn) [Example 149, 1-((7-((R)-3-Cyclopropyl-2-methylpropanoyl)-10-hydroxy-7-azaspiro[4.5]decan-10-yl)methyl)-N,N-dimethyl-6-oxo-4-phenyl-1,6-dihydropyridine-3-carboxamide]
The pIC50 of the first is lower: 4.30 to 5.30 for the first, over 6.30 for the second. The second is the more potent here.

First: CC1(C)CN(C(=O)CCc2ccccc2)CCC1(O)Cn1cnc(-c2ccccc2F)cc1=O (racemic) [Example 68, (R,S)-6-(2-Fluorophenyl)-3-((4-hydroxy-3,3-dimethyl-1-(3-phenylpropanoyl)piperidin-4-yl)methyl)pyrimidin-4(3H)-one]
Second: CC1(C)CN(C(=O)CCC2CC2)CCC1(O)Cn1cnc(-c2ccccc2F)cc1=O (racemic) [Example 83, (R,S)-3-((1-(3-Cyclopropylpropanoyl)-4-hydroxy-3,3-dimethylpiperidin-4-yl)methyl)-6-(2-fluorophenyl)pyrimidin-4(3H)-one]
The pIC50 of the first is higher: 4.30 to 5.30 for the first, 3.60 to 4.30 for the second.

First: CC(C)(CC1CCC1)C(=O)N1CCC(O)(Cn2cnc(-c3ccccc3F)cc2=O)CC1 [Example 59, 3-((1-(3-Cyclobutyl-2,2-dimethylpropanoyl)-4-hydroxypiperidin-4-yl)methyl)-6-(2-fluorophenyl)pyrimidin-4(3H)-one]
Second: O=C(CCC1CCCC1)N1CCC(O)(Cn2cnc(-c3ccccc3F)cc2=O)CC1 [Example 4, 3-((1-(3-Cyclopentylpropanoyl)-4-hydroxypiperidin-4-yl)methyl)-6-(2-fluorophenyl)pyrimidin-4(3H)-one]
The pIC50 of the first is higher: 4.30 to 5.30 for the first, 3.60 to 4.30 for the second.

`C[C@@H](CC(=O)N1CCC(O)(Cn2cc(C(=O)N(C)C)c(-c3ccccc3)cc2=O)C2(CCCC2)C1)c1ccccc1` (stereo partly drawn) [Example 183, 1-((10-Hydroxy-7-((S)-3-phenylbutanoyl)-7-azaspiro[4.5]decan-10-yl)methyl)-N,N-dimethyl-6-oxo-4-phenyl-1,6-dihydropyridine-3-carboxamide] and `CN(C)C(=O)c1cn(CC2(O)CCN(C(=O)C(C)(C)CC(F)F)CC23CCCC3)c(=O)cc1-c1ccccc1` (stereo not shown) [Example 244, 1-((7-(4,4-Difluoro-2,2-dimethylbutanoyl)-10-hydroxy-7-azaspiro[4.5]decan-10-yl)methyl)-N,N-dimethyl-6-oxo-4-phenyl-1,6-dihydropyridine-3-carboxamide] fall in the same range of pIC50: 4.30 to 5.30 for the first, 4.30 to 5.30 for the second.

First: C[C@H](CC1CCCCC1)C(=O)N1CCC(O)(Cn2cc(-c3ncco3)c(-c3ccccc3)cc2=O)C(C)(C)C1 (stereo partly drawn) [Example 136, 1-((1-((R)-3-Cyclohexyl-2-methylpropanoyl)-4-hydroxy-3,3-dimethylpiperidin-4-yl)methyl)-5-(oxazol-2-yl)-4-phenylpyridin-2(1H)-one]
Second: CC(C)N(C)C(=O)c1cn(CC2(O)CCN(C(=O)[C@H](C)CC3CCCCC3)CC2(C)C)c(=O)cc1-c1ccccc1 (mixture of isomers) [Example 73, 1-(((R)-1-((R)-3-Cyclohexyl-2-methylpropanoyl)-4-hydroxy-3,3-dimethylpiperidin-4-yl)methyl)-N-isopropyl-N-methyl-6-oxo-4-phenyl-1,6-dihydropyridine-3-carboxamide and 1-(((S)-1-((R)-3-Cyclohexyl-2-methylpropanoyl)-4-hydroxy-3,3-dimethylpiperidin-4-yl)methyl)-N-isopropyl-N-methyl-6-oxo-4-phenyl-1,6-dihydropyridine-3-carboxamide]
The pIC50 of the first is lower: 5.30 to 6.30 for the first, over 6.30 for the second.

`CN(C)C(=O)c1cn(C[C@]2(O)CCN(C(=O)[C@H](CO)CC(F)(F)F)CC23CCCC3)c(=O)cc1-c1ccccc1` [Example 247, 1-(((S)-10-Hydroxy-7-((S)-4,4,4-trifluoro-2-(hydroxymethyl)butanoyl)-7-azaspiro[4.5]decan-10-yl)methyl)-N,N-dimethyl-6-oxo-4-phenyl-1,6-dihydropyridine-3-carboxamide] and `C[C@H](CC(F)(F)F)C(=O)N1CC[C@@](O)(Cn2cc(C(=O)N3CCOCC3)c(-c3ccccc3)cc2=O)C2(CCCC2)C1` [Example 250, 1-(((S)-10-Hydroxy-7-((R)-4,4,4-trifluoro-2-methylbutanoyl)-7-azaspiro[4.5]decan-10-yl)methyl)-5-(morpholine-4-carbonyl)-4-phenylpyridin-2(1H)-one] cannot be ordered by pIC50: over 6.30 for the first, over 6.30 for the second.

First: CC(C)CC1(C(=O)N2CCC(O)(Cn3cnc(-c4ccccc4F)cc3=O)C(C)(C)C2)CC1 (racemic) [Example 69, (R,S)-6-(2-Fluorophenyl)-3-((4-hydroxy-1-(1-isobutylcyclopropane-1-carbonyl)-3,3-dimethylpiperidin-4-yl)methyl)pyrimidin-4(3H)-one]
Second: C[C@H](CC1CCCCC1)C(=O)N1CCC(O)(Cn2cnc(-c3ccc(CN)cc3)cc2=O)C(C)(C)C1 (stereo partly drawn) [Example 140, 6-(4-(Aminomethyl)phenyl)-3-((1-((R)-3-cyclohexyl-2-methylpropanoyl)-4-hydroxy-3,3-dimethylpiperidin-4-yl)methyl)pyrimidin-4(3H)-one]
The pIC50 of the first is lower: 4.30 to 5.30 for the first, 5.30 to 6.30 for the second. The second is the more potent here.

Compared with `C[C@H](CC1CCCCC1)C(=O)N1CCC(O)(Cn2cc(C(=O)N(C)C)c(-c3ccc(CO)cc3)cc2=O)C2(CCCC2)C1` (stereo partly drawn) [Example 162, 1-((7-((R)-3-Cyclohexyl-2-methylpropanoyl)-10-hydroxy-7-azaspiro[4.5]decan-10-yl)methyl)-4-(4-(hydroxymethyl)phenyl)-N,N-dimethyl-6-oxo-1,6-dihydropyridine-3-carboxamide], `CC(CN1CCCCC1)C(=O)N1CCC(O)(Cn2cc(C(=O)N(C)C)c(-c3ccccc3)cc2=O)C2(CCCC2)C1` (stereo not shown) [Example 158, 1-((10-Hydroxy-7-(2-methyl-3-(piperidin-1-yl)propanoyl)-7-azaspiro[4.5]decan-10-yl)methyl)-N,N-dimethyl-6-oxo-4-phenyl-1,6-dihydropyridine-3-carboxamide] is lower in pIC50: over 6.30 for the first, 3.60 to 4.30 for the second.

`C[C@H](CC(=O)N1CCC(O)(Cn2cc(N3CCCC3=O)c(-c3ccccc3)cc2=O)CC1)c1ccccc1` [Example 55, (R)-1-((4-Hydroxy-1-(3-phenylbutanoyl)piperidin-4-yl)methyl)-5-(2-oxopyrrolidin-1-yl)-4-phenylpyridin-2(1H)-one] and `CC(=O)Nc1cccc(-c2cn(CC3(O)CCN(C(=O)C[C@@H](C)c4ccccc4)CC3)c(=O)cc2-c2ccccc2)c1` [Example 6, (R)—N-(3-(1-((4-Hydroxy-1-(3-phenylbutanoyl)piperidin-4-yl)methyl)-6-oxo-4-phenyl-1,6-dihydropyridin-3-yl)phenyl)acetamide] fall in the same range of pIC50: 4.30 to 5.30 for the first, 4.30 to 5.30 for the second.

First: C[C@H](CC(=O)N1CCC(O)(Cc2cnc(-c3ccccc3)[nH]c2=O)CC1)c1ccccc1 [Example 33, (R)-5-((4-Hydroxy-1-(3-phenylbutanoyl)piperidin-4-yl)methyl)-2-phenylpyrimidin-4(3H)-one]
Second: CCC(C)(C)C(=O)N1CCC(O)(Cn2cc(C(=O)N(C)C(C)C)c(-c3ccccc3)cc2=O)CC1 [Example 84, 1-((1-(2,2-Dimethylbutanoyl)-4-hydroxypiperidin-4-yl)methyl)-N-isopropyl-N-methyl-6-oxo-4-phenyl-1,6-dihydropyridine-3-carboxamide]
The pIC50 of the first is higher: 4.30 to 5.30 for the first, 3.60 to 4.30 for the second.
